# Tests used:
# [1] = tested on: MRSA USA 400 biofilms; test: Cell death in an existing biofilm, DAPI/propidium iodide staining; assay type: cell-based, Staphylococcus aureus; settings: 24 h treatment; 0.008 mM to 0.125 mM; FIG. 15
# Description: (§1) For the treatment of MRSA USA 400 biofilms, the same 96 well plate assay procedure was used as described in the biofilm inhibition section above. However, the MRSA USA 400 inoculum (10^8 CFU/mL) grew overnight at 37° C. in the absence of BM3103 and without shaking. After 24 h of biofilm formation, BM3103 was serially diluted across a 96 well plate from of 1 mM to 0.002 mM. The plate was incubated again overnight at 37° C. without shaking.
# In order to confirm that treatment with BM3103 induced MRSA USA 400 bacterial cell death in the existing biofilm, both untreated cells and cells treated with BM3103 were stained with a combination of DAPI (nuclear stain) and Propidium iodide (PI, Live dead stain) as described in Example 15. MRSA USA 400 were plated in a well plate at 10^8 CFU/mL in combination with BM3103 treatment or no treatment. Plates were placed at 37° C. for 24 h. Bacteria cells were co-stained with DAPI and PI at 50 μg/mL and 500 μg/mL, respectively, for 15 min at room temperature. Wells were washed with warmed phosphate buffered saline (PBS) and maintained in PBS throughout the imaging acquisition process. Images were captured using the same exposure limits for each filter. […] Concentrations above 0.125 mM gave a similar result.
# [2] = tested on: MRSA USA 400 biofilms; test: Treatment of an existing biofilm; assay type: cell-based, Staphylococcus aureus
# Description: as §1
# [3] = tested on: Pseudomonas aeruginosa ATCC 27312; test: Colony forming assay, spread plate, Pseudomonas aeruginosa; assay type: cell-based; settings: for Reduction of PA counts: compared to vehicle, Tobramycin and untreated control
# Description: A fresh culture of pathogenic isolate was used in these examples. The bacterial strains used were Methicillin Resistant Staphylococcus aureus (MRSA USA 300), Pseudomonas aeruginosa ATCC 27312, and Candida albicans ATCC 64550.
# FIG. 5 illustrates the spread plate method used in these examples. In sum, agar plates were made, bacteria were diluted to 10^6 or 10^8 CFU/mL, bacteria and drug were mixed together and then plated. Glass spreading beads were used because they give a better bacterial spread. Plates were incubated for 24 hrs then the colonies that formed were counted.
# Proliferating cultures of Pseudomonas aeruginosa (PA, ATCC 27312) and Candida albicans (CA, ATCC 64550) were used in a colony forming assay. Freeze-dried bacteria cultures were recovered by swabbing a 3-cm diameter growth area and resuspending it to obtain a final inoculum suspension of approximately 10^6 CFU/mL. The concentration was confirmed using historical optical density measurements. Before bacteria challenge, the tolan compound BM3103 was suspended in 100% diethylene glycol monoethyl ether (Formulation C) with vehicle control consisting solely of the diethylene glycol monoethyl ether. Before plating, 100 μL of the final inoculum (10^6 CFU/mL) was mixed with 200 μL LB broth and 200 μL of BM3103 doses, vehicle, positive control (Tobramycin, 12 μg/mL for PA and 160 μg/mL for CA), or untreated control (phosphate buffered saline). The final plating concentration for the high, middle, and low BM3103 doses were 0.5%, 0.25%, and 0.1% w/v (22 mM, 11 mM, and 4 mM), respectively. The inoculum was plated on agar with centrimide and nalidixate (CN) supplement for PA (though sodium nalidixate or nalixic acid could also be used), and on Tryptic Soy Broth plates for CA experiments, at 37° C. for 24 h. Plates were photographed and counted. The experiment was done in triplicate.
# Colony counts for each treatment were tabulated and the Log of the colony forming units/mL (Log CFU/mL) were determined. The mean and standard deviation of the Log CFU/mL were calculated for each treatment. […] The medium and low dose groups reduced PA counts when compared to the vehicle, Tobramycin, and untreated control groups by about 5-fold.
# [4] = tested on: MRSA USA 400 biofilm; test: Biofilm inhibition assay (prevention of biofilm formation); assay type: cell-based, Staphylococcus aureus; settings: overnight 37° C.
# Description: Proliferating cultures of Methicillin Resistant Staphylococcus aureus (MRSA, USA 400) were used in a colony forming assay. Frozen stock cultures of MRSA USA 400 were thawed and grown overnight in tryptic soy broth (TSB) with shaking at 37° C. The overnight culture (0.5-1.0 mL) was added to 100 mL TSB and grown at 37° C. with shaking and monitored for an optical density of 0.55-0.60 in order to obtain a final inoculum suspension of approximately 10^8 CFU/mL.
# For the biofilm inhibition assay, 100 μL of MRSA USA 400 inoculum (10^8 CFU/mL) was plated with 100 μL of each BM3103 drug concentration in a 96 well plate. A 0.1 M stock of BM3103 was dissolved in ethanol and serially diluted in TSB across a 96 well plate to obtain final concentrations of 1 mM to 0.002 mM. The drug treated inoculum grew overnight at 37° C. without shaking.
smiles,measurement,setting,value
"COc1ccc(C#Cc2ccc(O)cc2)cc1 [BM3103, 4-hydroxy-4′-methoxytolan]",PI staining (cell death) in existing biofilm,[1],dose dependent increase in PI staining
same,Reduction of established MRSA USA 400 biofilm,"[2]; 0.008 mM, 24 h treatment of 24 h biofilm, FIG. 14C",slight reduction in the biofilm
same,Reduction of established MRSA USA 400 biofilm,"[2]; 0.0625 mM or above, 24 h treatment of 24 h biofilm, FIG. 14B",reduced the biofilm of MRSA USA 400 significantly
same,Reduction of established MRSA USA 400 biofilm,"[2]; 0.125 mM, 24 h treatment of 24 h biofilm, FIG. 14A",reduced the biofilm of MRSA USA 400 significantly
same,Reduction of established MRSA USA 400 biofilm,"[2]; concentrations below 0.002 mM, FIG. 14D",no reduction in the biofilm
same,Dose dependence of effect on PA bacterial counts,"[3]; 0.1-0.5% w/v, Formulation C",dose dependent inhibitory effect
same,PA bacterial counts,"[3]; high dose 0.5% w/v, 22 mM, diethylene glycol monoethyl ether (Formulation C), 24 h, FIG. 7",no bacteria colonies
same,Reduction of PA counts,"[3]; low dose 0.1% w/v, 4 mM, Formulation C, 24 h",about 5 fold
same,Reduction of PA counts,"[3]; medium dose 0.25% w/v, 11 mM, Formulation C, 24 h",about 5 fold
same,Biofilm formation of MRSA USA 400,"[4]; 0.008 mM, FIG. 12B",Mild biofilm formation
same,Biofilm formation of MRSA USA 400,"[4]; 0.625 mM, FIG. 12A",inhibits biofilm formation of MRSA USA 400 completely
same,Biofilm formation of MRSA USA 400,"[4]; about 0.002 mM, FIGS. 12C-12D",no effect on biofilm formation
same,Concentrations that completely inhibit biofilm formation,[4],above 0.0625 mM

# — US12678412B2, “Substituted tolans for the modulation of microbial colonization” (BioMendics, LLC, priority 2017, dated 2026)
